Results as given in PubChem BioAssay (NCI).
Values joined by “and” are separate entries in the source; they are usually repeats but may differ in a detail not shown here. Equal entries are not always repeated.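 Tested at 5 concentrations; 48 h exposure; 96-well plates; endpoints linearly interpolated, else capped at highest concentration. GI50 is the concentration that inhibits growth by half. TGI: concentration producing complete growth inhibition.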

How the values were obtained:
Assay in all cases: growth of human tumour cells (NCI), 48 h
SN12C renal = tested on: SN12C renal
SF-295 CNS = tested on: SF-295 CNS
SK-OV-3 ovarian = tested on: SK-OV-3 ovarian
NCI-H226 lung = tested on: NCI-H226 lung
SNB-19 CNS = tested on: SNB-19 CNS
HCC-2998 colon = tested on: HCC-2998 colon
SF-268 CNS = tested on: SF-268 CNS
PC-3 prostate = tested on: PC-3 prostate
UACC-62 melanoma = tested on: UACC-62 melanoma
T-47D breast = tested on: T-47D breast

| SMILES | GI50 (SN12C renal) [µM] | TGI (SN12C renal) [µM] | GI50 (SF-295 CNS) | TGI (SF-295 CNS) [µM] | GI50 (SK-OV-3 ovarian) | TGI (SK-OV-3 ovarian) | GI50 (NCI-H226 lung) | TGI (NCI-H226 lung) [µM] | GI50 (SNB-19 CNS) [µM] | TGI (SNB-19 CNS) [µM] | GI50 (HCC-2998 colon) | TGI (HCC-2998 colon) | GI50 (SF-268 CNS) [µM] | TGI (SF-268 CNS) [µM] | GI50 (PC-3 prostate) | TGI (PC-3 prostate) [µM] | GI50 (UACC-62 melanoma) | TGI (UACC-62 melanoma) | GI50 (T-47D breast) | TGI (T-47D breast) [µM] |
| --- | --- | --- | --- | --- | --- | --- | --- | --- | --- | --- | --- | --- | --- | --- | --- | --- | --- | --- | --- | --- |
| CCCN(CCC)c1ccc(/C=N/NC(=O)c2cccnc2)c(C)c1 | 17.5 | 41.2 | 10.7 µM | 25.5 | 18.1 µM | 46.9 µM | 12 µM | 26.3 | 16.1 | 34.1 | 14.3 µM | 32.1 µM | 13.9 | 31.2 | 16.8 µM | 67.7 | 11.4 µM | 24.6 µM | 6.35 µM | 27.6 |
| CCOC(=O)c1ccc(N2NC(=O)/C(=C/c3ccc([N+](=O)[O-])o3)C2=O)cc1 | 27.5 | > 55.8 | > 39 µM | > 56.1 | > 39.4 µM | > 54.1 µM | > 41 µM | > 56.5 | > 44.8 | > 72.2 | > 41.8 µM | > 56.5 µM | 24.2 | > 55.3 | 21.3 µM | 55.8 | 19.9 µM | 43 µM | 8.92 µM | 33.4 |
| CN1CCN(C)C1c1ccc(C2N(C)CCN2C)cc1 | 31.4 | > 100 | > 100 µM | > 100 | > 100 µM | > 100 µM | > 100 µM | > 100 | 39.5 | > 100 | 40.5 µM | > 100 µM | 39.8 | > 100 | > 100 µM | > 100 | 56.9 µM | > 100 µM | 20.4 µM | > 100 |
| COc1cc(-n2cc(-c3ccc(Cl)cc3)n(-c3ccccc3)c2=O)cc(OC)c1OC | 23.3 | > 72.5 | 19.3 µM | > 100 | 30.8 µM | > 90.7 µM | 29.9 µM | 97.1 | 36.7 | > 100 | 22.9 µM | > 100 µM | 31.2 | > 100 | > 37.7 µM | > 100 | 4.92 µM | 28.2 µM | 8.01 µM | 74 |
| ClCc1ccccc1Cn1cnc2nc(Cl)nc(Cl)c21 | 1.17 | 2.56 | 9.28 µM | 32.3 | 4.35 µM | 15.4 µM | 1.18 µM | 9.52 | 1.14 | 2.51 | 3.96 µM | 8.56 µM | 0.379 | > 49.4 | 0.323 µM | 1.81 | 0.495 µM | 1.37 µM | 0.59 µM | 5.24 |
| O=C(COc1ccccc1)NNc1ccccc1 | > 300 | > 300 | 18.3 µM and 11.2 µM | > 300 | 254 µM | > 300 µM | > 92.3 µM and 224 µM | > 300 | 234 | > 300 | 27.2 µM and 26.6 µM | > 300 µM | 140 | > 300 | 45.3 µM and 44.1 µM | > 300 | 2.71 µM and 5 µM | > 79.5 µM and 91.2 µM | 35.2 µM and 19 µM | > 300 |
| COc1cccc(S(=O)(=O)NC2=NCCN2C(=S)SN2CCn3c2nsc3=S)c1 | 36.1 | > 100 | > 100 µM | > 100 | 20.4 µM | 99.1 µM | 30.9 µM | > 100 | 49.8 | > 100 | 41.5 µM | > 100 µM | 59.3 | > 100 | 36.2 µM | > 100 | 28.6 µM | > 100 µM | 23.3 µM | 51 |
| COc1ccc(Sc2[nH]c(C=O)c3ccccc23)cc1 | 14.9 | 33.1 | 9.16 µM | 26.9 | 4.99 µM | 24.9 µM | 2.62 µM | 16.8 | 4.78 | 18.5 | 5.44 µM | 18.2 µM | 14.9 | 31.2 | 13.3 µM | 41.4 | 11 µM | 26.1 µM | 9.08 µM | 30.2 |
| CCOc1ccc(-c2nc3ccc(-c4nc5ccc(N6CCN(C)CC6)cc5[nH]4)cc3[nH]2)cc1 | 0.342 | 1.61 | 0.518 µM | 2.63 | 0.379 µM and 0.478 µM | 1.84 µM and 1.86 µM | 0.648 µM | 2.25 | 0.448 | 1.73 | 0.267 µM and 0.196 µM | 0.543 µM and 0.415 µM | 0.361 | 1.67 | 0.352 µM | 6.19 | 0.511 µM | 1.96 µM | 0.299 µM | 2.2 |
| O=C1OC2(c3ccc(O)cc3Oc3cc(O)ccc32)c2cccc3cccc1c23 | 22.1 | 82.9 | 32.3 µM | > 100 | 34 µM | > 100 µM | 16.1 µM | 52.1 | 17.5 | 34.1 | 48.4 µM | > 100 µM | 29.5 | > 100 | 36.2 µM | > 100 | 17.3 µM | 42.5 µM | 28.6 µM | 99.6 |
| COc1cccc(/C=N\NC(=O)c2ccncc2)c1O | 8.41 | > 100 | 3.35 µM | 71.2 | 6.45 µM | > 100 µM | 10.4 µM | > 100 | 6.72 | > 100 | 4.73 µM | > 100 µM | 3.47 | > 100 | 8.01 µM | > 100 | 3.62 µM | 34.6 µM | 3.46 µM | > 100 |
| Clc1cc(Br)ccc1-c1ccc(CNCC2CCNCC2)o1 | 2.23 | 7.69 | 1.94 µM | 3.99 | 1.99 µM | 3.86 µM | 2.3 µM | 6.25 | 2.3 | 7.2 | 1.86 µM | 3.45 µM | 1.57 | 3.04 | 1.64 µM | 3.3 | 1.69 µM | 3.21 µM | 1.98 µM | 3.93 |
